According to article doi:10.1101/2025.02.03.636334v1 (biorxiv, 2025):
Values after ≈ are worked out from the molar mass of the structure shown.

How the values were obtained:
[1] = target: T1, KasA (Mycobacterium tuberculosis, UniProt P9WQD9); assay: biochemical; details: read-out: % KasA Inhibition at 25 µM Compound
T1 sequence (P9WQD9 1-416): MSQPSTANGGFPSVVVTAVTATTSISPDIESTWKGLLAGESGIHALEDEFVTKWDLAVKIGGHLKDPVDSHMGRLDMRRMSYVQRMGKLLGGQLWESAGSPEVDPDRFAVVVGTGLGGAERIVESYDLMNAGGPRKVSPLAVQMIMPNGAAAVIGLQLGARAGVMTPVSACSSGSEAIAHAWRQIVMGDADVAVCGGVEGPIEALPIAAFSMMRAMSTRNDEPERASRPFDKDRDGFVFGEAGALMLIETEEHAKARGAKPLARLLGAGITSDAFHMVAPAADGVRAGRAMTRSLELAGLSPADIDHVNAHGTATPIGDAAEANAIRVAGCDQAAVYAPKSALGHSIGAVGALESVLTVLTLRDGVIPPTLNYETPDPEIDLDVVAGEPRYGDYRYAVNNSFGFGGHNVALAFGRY

[2] = system: M. tuberculosis H37Rv; assay: microbe, parasite or virus in culture; details: Mycobacterium tuberculosis, 192 h, read-out: Mtb MIC (µM)
[3] = target: T2, MabA (Mycobacterium tuberculosis, UniProt P9WGT3); assay: biochemical; details: read-out: % of control remaining
T2 sequence (P9WGT3 whole entry): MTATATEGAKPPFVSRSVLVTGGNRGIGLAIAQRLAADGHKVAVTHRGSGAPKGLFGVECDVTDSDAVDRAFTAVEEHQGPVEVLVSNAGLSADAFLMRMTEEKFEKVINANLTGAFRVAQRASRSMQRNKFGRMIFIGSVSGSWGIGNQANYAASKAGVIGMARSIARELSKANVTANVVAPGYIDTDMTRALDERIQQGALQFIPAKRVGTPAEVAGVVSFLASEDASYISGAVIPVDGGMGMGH

[4] = target: T2, MabA; assay: MabA NADPH oxidation at […] nm; assay type: biochemical
[5] = target: T1, KasA; assay: KasA-MabA coupled assay, NADPH at […] nm; assay type: biochemical; details: read-out: % inhibition at 25 μM
[6] = target: T1, KasA; assay: microscale thermophoresis, RED-NHS labelled KasA; assay type: binding

Row | SMILES | inhibition at 25 µM [1] | MIC [2] | remaining activity at 25 µM [3] | IC50 [4] | inhibition at 25 µM [5] | Kd [6]
1 | Cc1ccc(-c2cc(-c3c(O)nc4ccccc4c3-c3ccccc3)nc3ccccc23)cc1 [Z1702969146] | 27.1 ± 8.1% | 12 µM (≈ 5.26 µg/mL) | 101 ± 17.6% | – | – | –
2 | O=C(Nc1ccc(O)cc1)C1CCN(C(=O)c2cccc(Oc3cccc(C(F)(F)F)c3)c2)CC1 [Z979305278] | 31.2 ± 9.3% | 12 µM (≈ 5.81 µg/mL) | 97.8 ± 16.3% | – | – | –
3 | O=C(Nc1ccc(S(=O)(=O)Nc2cccc(C(F)(F)F)c2)cc1)c1cc2ccccc2oc1=O [Z31753778] | 12 ± 8.8% | 0.78 µM (≈ 0.381 µg/mL) | 97.9 ± 14.6% | – | – | –
4 | C(=N\Nc1nc(-c2ccccc2)c2ccccc2n1)/c1cccc2cccnc12 [Z1033301210] | 46.7 ± 12.5% | 12 µM (≈ 4.51 µg/mL) | 68.4 ± 16.8% | > 100 µM | – | –
5 | O=C(Nc1nc(-c2ccccn2)cs1)c1cc(-c2ccccc2)nc2ccc(Br)cc12 [JSF-5071, 6-bromo-2-phenyl-N-(4-(pyridin-2-yl)thiazol-2-yl)quinoline-4-carboxamide] | – | – | – | – | 12.7 ± 4.8% | 4.78 ± 1.3 µM
6 | O=C(c1cc(-c2ccc(F)cc2)nc2ccccc12)N1CCC(NS(=O)(=O)c2cccs2)CC1 [Z212116604] | 14.7 ± 9.6% | 12 µM (≈ 5.95 µg/mL) | 99.4 ± 15% | – | – | –
7 | Cc1ccc(-c2cc(C(=O)N3CCC(C(=O)Nc4ccc5c(c4)OCO5)CC3)c3ccccc3n2)cc1 [Z99494139] | 11.5 ± 7% | 1.5 µM (≈ 0.74 µg/mL) | 101 ± 20.4% | – | – | –
8 | O=C(Nc1ccc2c(c1)OCO2)C1CCN(C(=O)c2cc(-c3ccc(F)cc3)nc3ccccc23)CC1 [Z99494149] | 12 ± 8.8% | 3.1 µM (≈ 1.54 µg/mL) | 95.5 ± 15% | – | – | –
9 | O=C(Nc1nc(-c2cccc(C(F)(F)F)c2)cs1)C1CCN(C(=O)c2ccc(F)cc2)CC1 [Z318114792] | 4.72 ± 3% | 12 µM (≈ 5.73 µg/mL) | 102 ± 16.8% | – | – | –
10 | O=C(C1=C2SC=C(c3ccccc3)N2CCCC1)c1cc(-c2ccccc2Cl)nc2ccccc12 [Z56802551] | 15.6 ± 11.1% | 12 µM (≈ 5.94 µg/mL) | 104 ± 22.4% | – | – | –
11 | Clc1ccc(-c2cc(Nc3ccccc3Cl)nc3ccccc23)cc1 [Z1143441182] | 13.9 ± 12% | 12 µM (≈ 4.38 µg/mL) | 105 ± 19.7% | – | – | –
12 | O=C(Nc1nc(-c2ccccn2)cs1)c1cc(-c2ccccc2)nc2ccc(Br)cc12 [Z29466477] | 15.3 ± 12.8% | 0.12 µM (≈ 0.0585 µg/mL) | 92.1 ± 16.2% | – | – | –
